Experimental data as given in patent US7709482B2, “Polycyclic heteroaryl substituted triazoles useful as Axl inhibitors” (Rigel Pharmaceuticals, Inc., priority 2006, dated 2010).
Read-outs that look alike come from different tables or passages of the source.

Molecular target: T1, Axl (Homo sapiens, UniProt P30530)
T1 construct: endogenous in cells; host or cells: HeLa cells
T1 sequence (P30530 26-894): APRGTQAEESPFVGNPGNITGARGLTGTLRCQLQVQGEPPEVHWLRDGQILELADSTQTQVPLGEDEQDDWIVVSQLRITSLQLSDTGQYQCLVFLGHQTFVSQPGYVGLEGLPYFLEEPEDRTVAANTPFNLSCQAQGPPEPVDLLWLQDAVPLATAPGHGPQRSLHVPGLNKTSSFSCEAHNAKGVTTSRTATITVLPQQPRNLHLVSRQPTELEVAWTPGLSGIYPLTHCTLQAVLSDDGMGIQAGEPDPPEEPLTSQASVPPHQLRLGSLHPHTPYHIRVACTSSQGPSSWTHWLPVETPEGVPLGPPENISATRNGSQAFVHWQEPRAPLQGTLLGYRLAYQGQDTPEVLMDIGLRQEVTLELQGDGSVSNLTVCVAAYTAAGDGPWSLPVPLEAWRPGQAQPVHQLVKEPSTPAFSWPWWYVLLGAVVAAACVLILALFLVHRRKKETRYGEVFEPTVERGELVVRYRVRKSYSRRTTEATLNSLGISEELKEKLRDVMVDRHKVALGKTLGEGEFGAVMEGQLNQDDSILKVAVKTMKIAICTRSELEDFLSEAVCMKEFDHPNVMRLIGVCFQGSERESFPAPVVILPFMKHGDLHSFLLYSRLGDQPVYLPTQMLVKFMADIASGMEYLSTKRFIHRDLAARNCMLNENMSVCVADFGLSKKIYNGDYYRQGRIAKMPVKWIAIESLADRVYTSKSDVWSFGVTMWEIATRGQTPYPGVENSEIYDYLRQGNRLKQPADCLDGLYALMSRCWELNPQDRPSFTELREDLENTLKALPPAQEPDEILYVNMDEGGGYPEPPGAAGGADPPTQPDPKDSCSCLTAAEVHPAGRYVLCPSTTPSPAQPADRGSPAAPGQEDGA
Test: Phospho-Akt In-Cell Western Assay (inhibition of Axl activity after Axl-antibody cross-linking)
Type: cell-based
Conditions: read-out: IC50
Procedure, shortened: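 Phospho-Akt was detected in formaldehyde-fixed cells by in-cell immunostaining with HRP chemiluminescence. Before fixation, HeLa cells kept 24 h in low-serum medium containing 500 ng/mL Axl/Fc received compound for 1 h at 37 °C, followed by 5-min Axl activation through antibody clustering.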

[1] = inhibition of Axl activity, Table 1, compounds of formula (Ia)
[2] = Hela cells, phospho-Akt chemiluminescence normalized to relative cell number, compounds of formula (Ib), Table 2

Compound	IC50 [1] [nM]	IC50 [2] [nM]
Nc1nc(Nc2ccc3c(c2)CCC(NC2CCCCC2)CC3)nn1-c1cc2c(nn1)-c1ccccc1CCC2 (centres unmarked) [Compound 224, 1-(6,7-dihydro-5H-benzo[6,7]cyclohepta[1,2-c]pyridazin-3-yl)-N^3-(7-cyclohexylamino-6,7,8,9-tetrahydro-5H-benzo[7]annulene-2-yl)-1H-1,2,4-triazole-3,5-diamine]	< 1000	
Nc1nc(Nc2ccc3c(c2)CCC(NCC2CCCO2)CC3)nn1-c1cc2c(nn1)-c1ccccc1CCC2 (centres unmarked) [Compound 228, 1-(6,7-dihydro-5H-benzo[6,7]cyclohepta[1,2-c]pyridazin-3-yl)-N^3-(7-(tetrahydrofuran-2-ylmethyl)amino-6,7,8,9-tetrahydro-5H-benzo[7]annulene-2-yl)-1H-1,2,4-triazole-3,5-diamine]	< 1000	
Nc1nc(Nc2ccc3c(c2)CCC(NC2CCC2)CC3)nn1-c1cc2c(nn1)-c1ccccc1CCC2 (centres unmarked) [Compound 229, 1-(6,7-dihydro-5H-benzo[6,7]cyclohepta[1,2-c]pyridazin-3-yl)-N^3-(7-cyclobutylamino-6,7,8,9-tetrahydro-5H-benzo[7]annulene-2-yl)-1H-1,2,4-triazole-3,5-diamine]	< 1000	
Nc1nc(Nc2ccc3c(c2)CCC(NCC2CC2)CC3)nn1-c1cc2c(nn1)-c1ccccc1CCC2 (centres unmarked) [Compound 230, 1-(6,7-dihydro-5H-benzo[6,7]cyclohepta[1,2-c]pyridazin-3-yl)-N^3-(7-(cyclopropylmethyl)amino-6,7,8,9-tetrahydro-5H-benzo[7]annulene-2-yl)-1H-1,2,4-triazole-3,5-diamine]	< 1000	
CCN(CC)CCN(C)C1CCc2ccc(Nc3nc(N)n(-c4cc5c(nn4)-c4ccccc4CCC5)n3)cc2CC1 (centres unmarked) [Compound 231, 1-(6,7-dihydro-5H-benzo[6,7]cyclohepta[1,2-c]pyridazin-3-yl)-N^3-(7-(2-(diethylamino)ethyl)methyl-amino-6,7,8,9-tetrahydro-5H-benzo[7]annulene-2-yl)-1H-1,2,4-triazole-3,5-diamine]	< 1000	
Nc1nc(Nc2ccc3c(c2)CCC(N2CCC(N4CCCC4)CC2)CC3)nn1-c1cc2c(nn1)-c1ccccc1CCC2 (centres unmarked) [Compound 232, 1-(6,7-dihydro-5H-benzo[6,7]cyclohepta[1,2-c]pyridazin-3-yl)-N^3-(7-(4-pyrrolidin-1-ylpiperidin-1-yl)-6,7,8,9-tetrahydro-5H-benzo[7]annulene-2-yl)-1H-1,2,4-triazole-3,5-diamine]	< 1000	
Nc1nc(Nc2ccc3c(c2)CCC(N)CC3)nn1-c1cc2c(nn1)-c1ccccc1CCC2 (centres unmarked) [Compound 234, 1-(6,7-dihydro-5H-benzo[6,7]cyclohepta[1,2-c]pyridazin-3-yl)-N^3-(7-amino-6,7,8,9-tetrahydro-5H-benzo[7]annulene-2-yl)-1H-1,2,4-triazole-3,5-diamine]	< 1000	
CN(C)CCNC1CCc2ccc(Nc3nc(N)n(-c4cc5c(nn4)-c4ccccc4CCC5)n3)cc2CC1 (centres unmarked) [Compound 235]	< 1000	
Nc1nc(Nc2ccc(N3CCC(N4CCCC4)CC3)c(F)c2)nn1-c1cc(-c2ccccc2)c2c(n1)-c1ccccc1CCC2 [Compound 238, 1-(4-phenyl-6,7-dihydro-5H-benzo[6,7]cyclohepta[1,2-b]pyridin-2-yl)-N^3-(3-fluoro-4-(4-pyrrolidin-1-ylpiperidin-1-yl)phenyl)-1H-1,2,4-triazole-3,5-diamine]	1000 to 10000	
COc1cc2ncnc(-n3nc(Nc4cnc5c(c4)CC4(CCC5)OCCO4)nc3N)c2cc1OC [Compound 239, 1-(6,7-dimethoxy-quinazolin-4-yl)-N^3-(5,7,8,9-tetrahydrospiro[cyclohepta[b]pyridine-6,2′-[1,3]dioxolane]-3-yl)-1H-1,2,4-triazole-3,5-diamine]	1000 to 10000	
CN1CCN(c2ccc(Nc3nc(N)nn3-c3cc4c(nn3)-c3ccccc3CCC4)cc2F)CC1 [Compound 242, 1-(6,7-dihydro-5H-benzo[6,7]cyclohepta[1,2-c]pyridazin-3-yl)-N^5-(3-fluoro-4-(4-methylpiperazin-1-yl)phenyl)-1H-1,2,4-triazole-3,5-diamine]		1000 to 10000

The next lines start with the values.

IC50 [1] [nM]	IC50 [2] [nM]	Compound
< 1000		Nc1nc(Nc2ccc3c(c2)CCC(=O)CC3)nn1-c1cc2c(nn1)-c1ccccc1CCC2 [Compound 223, 1-(6,7-dihydro-5H-benzo[6,7]cyclohepta[1,2-c]pyridazin-3-yl)-N^3-(7-oxo-6,7,8,9-tetrahydro-5H-benzo[7]annulene-2-yl)-1H-1,2,4-triazole-3,5-diamine]
< 1000		Nc1nc(Nc2ccc3c(c2)CCC(NC2CC2)CC3)nn1-c1cc2c(nn1)-c1ccccc1CCC2 (centres unmarked) [Compound 225, 1-(6,7-dihydro-5H-benzo[6,7]cyclohepta[1,2-c]pyridazin-3-yl)-N^3-(7-cyclopropylamino-6,7,8,9-tetrahydro-5H-benzo[7]annulene-2-yl)-1H-1,2,4-triazole-3,5-diamine]
< 1000		Nc1nc(Nc2ccc3c(c2)CCC(O)CC3)nn1-c1cc2c(nn1)-c1ccccc1CCC2 (centres unmarked) [Compound 226, 1-(6,7-dihydro-5H-benzo[6,7]cyclohepta[1,2-c]pyridazin-3-yl)-N^3-(7-hydroxy-6,7,8,9-tetrahydro-5H-benzo[7]annulene-2-yl)-1H-1,2,4-triazole-3,5-diamine]
< 1000		CN1CCN(C2CCc3ccc(Nc4nc(N)n(-c5cc6c(nn5)-c5ccccc5CCC6)n4)cc3CC2)CC1 (centres unmarked) [Compound 227, 1-(6,7-dihydro-5H-benzo[6,7]cyclohepta[1,2-c]pyridazin-3-yl)-N^3-(7-(4-methylpiperazin-1-yl)-6,7,8,9-tetrahydro-5H-benzo[7]annulene-2-yl)-1H-1,2,4-triazole-3,5-diamine]
< 1000		Nc1nc(Nc2ccc3c(c2)CCC(N2CCC(CN4CCCCC4)CC2)CC3)nn1-c1cc2c(nn1)-c1ccccc1CCC2 (centres unmarked) [Compound 233, 1-(6,7-dihydro-5H-benzo[6,7]cyclohepta[1,2-c]pyridazin-3-yl)-N^3-(7-(4-(piperidin-1-ylmethyl)piperidin-1-yl)-6,7,8,9-tetrahydro-5H-benzo[7]annulene-2-yl)-1H-1,2,4-triazole-3,5-diamine]
< 1000		Nc1nc(Nc2ccc(C3CCN(C4CC5CCC4C5)CC3)cc2)nn1-c1cc2c(nn1)-c1ccccc1SCC2 (centres unmarked) [Compound 236, 1-(6,7-dihydro-5H-benzo[2,3]thiepino[4,5-c]pyridazin-3-yl)-N^3-(4-(1-bicyclo[2.2.1]heptan-2-yl)-piperidin-4-ylphenyl)-1H-1,2,4-triazole-3,5-diamine]
> 20000		Nc1nc(Nc2ccc3c(c2)CCC(NCC(=O)O)CC3)nn1-c1cc2c(nn1)-c1ccccc1CCC2 (centres unmarked) [Compound 237, 1-(6,7-dihydro-5H-benzo[6,7]cyclohepta[1,2-c]pyridazin-3-yl)-N^3-(7-(carboxymethyl)amino-6,7,8,9-tetrahydro-5H-benzo[7]annulene-2-yl)-1H-1,2,4-triazole-3,5-diamine]
< 1000		Cc1csc2c(-n3nc(Nc4cnc5c(c4)CC4(CCC5)OCCO4)nc3N)nc(Cl)nc12 [Compound 240, 1-(2-chloro-7-methylthieno[3,2-d]pyrimidin-4-yl)-N^3-(5,7,8,9-tetrahydrospiro[cyclohepta[b]pyridine-6,2′-[1,3]dioxolane]-3-yl)-1H-1,2,4-triazole-3,5-diamine]
< 1000		Cc1csc2c(-n3nc(Nc4cnc5c(c4)CCC4(CC5)OCCO4)nc3N)nc(Cl)nc12 [Compound 241, 1-(2-chloro-7-methylthieno[3,2-d]pyrimidin-4-yl)-N^3-(5,6,8,9-tetrahydrospiro[cyclohepta[b]pyridine-7,2′-[1,3]dioxolane]-3-yl)-1H-1,2,4-triazole-3,5-diamine]
	1000 to 10000	Nc1nc(Nc2ccc3c(c2)CNCC3)n(-c2cc3c(nn2)-c2ccccc2CCC3)n1 [Compound 243, 1-(6,7-dihydro-5H-benzo[6,7]cyclohepta[1,2-c]pyridazin-3-yl)-N^5-(1,2,3,4-tetrahydroisoquinolin-7-yl)-1H-1,2,4-triazole-3,5-diamine]
	< 1000	Nc1nc(Nc2ccc(N3CCN(CC4CC4)CC3)c(F)c2)n(-c2cc3c(nn2)-c2ccccc2CCC3)n1 [Compound 244, 1-(6,7-dihydro-5H-benzo[6,7]cyclohepta[1,2-c]pyridazin-3-yl)-N^5-(3-fluoro-4-(4-cyclopropylmethylpiperazin-1-yl)phenyl)-1H-1,2,4-triazole-3,5-diamine]
	1000 to 10000	CN1CCC(N2CCc3ccc(Nc4nc(N)nn4-c4cc5c(nn4)-c4ccccc4CCC5)cc3C2)CC1 [Compound 245, 1-(6,7-dihydro-5H-benzo[6,7]cyclohepta[1,2-c]pyridazin-3-yl)-N^5-(2-(1-methylpiperidin-4-yl)-1,2,3,4-tetrahydroisoquinolin-7-yl)-1H-1,2,4-triazole-3,5-diamine]
